Assay results from PubChem BioAssay (NCI).
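These data come from cells grown in 96-well plates and exposed to compound for 48 hours at five concentrations. TGI is the concentration that stops growth completely.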

Tests used:
Assay in all cases: DTP human tumour cell line panel, 48 h
HCC-2998 colon = tested on: HCC-2998 colon
HT29 colon = tested on: HT29 colon
K-562 leukemia = tested on: K-562 leukemia
M14 melanoma = tested on: M14 melanoma
NCI-H226 lung = tested on: NCI-H226 lung
PC-3 prostate = tested on: PC-3 prostate
RXF 393 renal = tested on: RXF 393 renal
SK-MEL-5 melanoma = tested on: SK-MEL-5 melanoma
SN12C renal = tested on: SN12C renal
UACC-257 melanoma = tested on: UACC-257 melanoma

SMILES	TGI (HCC-2998 colon) [µM]	TGI (HT29 colon) [µM]	TGI (K-562 leukemia) [µM]	TGI (M14 melanoma) [µM]	TGI (NCI-H226 lung) [µM]	TGI (PC-3 prostate) [µM]	TGI (RXF 393 renal) [µM]	TGI (SK-MEL-5 melanoma) [µM]	TGI (SN12C renal) [µM]	TGI (UACC-257 melanoma) [µM]
CN1CCN(C(=O)c2cn(Cc3cncn3Cc3ccc4c(c3)OCO4)cc2-c2cccc3ccccc23)CC1	27	> 95.5	53.5	46	> 100	> 86.3	> 100	37.4	> 100	42.7
Nc1[nH]c(=O)nc2c1ncn2C1OC(CO)C(O)C1O (stereo not given)	88.9	> 100	> 100	> 100	> 100	60.2	> 100	> 100	> 100	> 100
CCCCCC[C@H]([C@H](C)O)n1cnc2c(N)ncnc21	> 100	> 100	> 100	> 100	> 100	> 100	> 100	> 100	> 100	> 100
Clc1ccc2c(NCCCCCCNc3ccnc4cc(Cl)ccc34)ccnc2c1	3.32	4.44	4.98	3.51	25.3	18.1	6.35	10.9	16.6	14.6
COc1ccccc1NC(=O)C(=O)C(C(=O)c1ccccc1F)C1OC(=O)c2ccccc21 (stereo not given)	28.8	62.5	> 100	> 100	43.8	–	68.4	> 100	87.2	> 100
COC1CC(C)(NC(=O)C(F)(F)F)C2OC(c3ccccc3)OCC2O1 (stereo not given)	–	> 100	> 100	> 100	> 100	> 100	> 100	> 100	> 100	> 100
COC(=N)C1(C#N)NC(c2ccsc2)C(C#N)(C#N)NC1c1ccsc1 (stereo not given)	> 100	> 100	> 100	> 100	> 100	> 100	> 100	> 100	> 100	> 100
O=C1Nc2ccccc2/C1=C\c1c(Cl)n(-c2ccccc2)c2ccccc12	9.83	6.46	> 100	10.1	12.2	60.3	10.9	17.5	14.6	36.5
Cc1nc2c(Br)cc(Br)cc2c(=O)n1-c1ccccc1NC1OC(CO)C(O)C(O)C1O (stereo not given)	> 100	> 100	> 100	> 100	> 100	> 100	> 100	> 100	> 100	> 100
CC1=C(CO)C(=O)OC(C(C)C2CCC3C4CC5OC56C(O)C(N5CC5)=CC(=O)C6(C)C4CCC23C)C1 (stereo not given)	9.73	13.7	14.2	24.6	29.1	–	26.9	25.4	19.5	24.4
Cc1nc(NC(C)(CO)CO)nc(N/N=C/c2ccc(Cl)cc2)c1C(=O)Nc1ccc(Cl)cc1	> 100	> 100	> 100	> 100	> 100	> 100	> 100	–	> 100	> 100
CC(=O)NC1C(OCc2ccccc2)OC(CO)C(O)C1OC(C)C(=O)N[C@@H](C)C(=O)N[C@H](CCC(=O)NCCNCCNc1c2ccccc2nc2cccc([N+](=O)[O-])c12)C(N)=O (stereo not given in full)	0.072	0.668	> 100	0.436	0.716	0.891	0.0844	0.0635	0.99	0.753
FC1=C2C3CCC(C3)C2C1(F)F (stereo not given)	> 100	> 100	> 100	> 100	> 100	> 100	> 100	> 100	> 100	> 100
NC(=O)CCC(N=c1c2ccccc2n(O)c2ccccc12)C(=O)O (stereo not given)	> 100	–	> 100	> 100	> 100	–	–	> 100	> 100	–
CC(=O)n1[nH]c(=O)n(-c2ccc(Cl)cc2)c1=O	> 100	> 100	> 100	> 100	> 100	> 100	> 100	> 100	> 100	> 100
CC(O)c1nc(C#N)c(N)o1 (stereo not given)	–	> 100	> 100	> 100	> 100	> 100	–	> 100	> 100	> 100
COc1cc2c[n+]3c4c(c2c(OC)c1OC)CCCC4CC3 (stereo not given)	> 100	> 100	> 100	> 100	–	> 100	> 100	46.9	–	> 100
COC(=O)c1c2c(cc3c1CC1(Cc4cc5c(c(C=O)c4C1)CCC5)C3)CCC2 (stereo not given)	95.2	79.2	> 100	75.6	–	> 100	> 100	37.2	–	71.3
O=[N+]([O-])c1ccc(-n2nc3ccc4nonc4c3n2)cc1	> 100	> 100	> 100	> 100	65.3	> 100	–	> 100	> 100	> 100
CC(C)CCCC(C)[C@H]1CCC(C2C[C@@H](O)[C@@H]3CC(O)[C@@H](O)C[C@]3(CO)C2=O)[C@]1(C)CCO (stereo not given in full)	38.4	36.3	61.2	–	> 73.8	–	53.3	18.8	> 74.1	46.5
O=c1[nH]c(=O)n(COC(CO)CO)cc1-c1ccccc1	> 100	> 100	> 100	> 100	–	> 100	–	> 100	> 100	> 100
CC(C)(C)C(=O)Nc1c(C=O)ccc2[nH]cnc12	> 100	–	> 100	> 100	> 100	> 100	> 100	> 100	> 100	> 100
